Assay results taken from patent US20230136297A1, “Methods Of Treating Fabry Disease In Patients Having A Mutation In The GLA Gene” (Amicus Therapeutics, Inc., priority 2020, published 2023).
Changes are numbered by the printed parent chain.

Experiments:
Assay in all cases: α-Gal A activity in lysates of transfected HEK-293 cells ± migalastat (HEK assay)
Assay type in all cases: cell-based
[1] = target: T1, α-Gal A mutant form L310V (Homo sapiens, UniProt P06280, L310V)
T1 construct: expressed in transfected cells; host or cells: HEK-293
T1 sequence (P06280 32-429 L310V): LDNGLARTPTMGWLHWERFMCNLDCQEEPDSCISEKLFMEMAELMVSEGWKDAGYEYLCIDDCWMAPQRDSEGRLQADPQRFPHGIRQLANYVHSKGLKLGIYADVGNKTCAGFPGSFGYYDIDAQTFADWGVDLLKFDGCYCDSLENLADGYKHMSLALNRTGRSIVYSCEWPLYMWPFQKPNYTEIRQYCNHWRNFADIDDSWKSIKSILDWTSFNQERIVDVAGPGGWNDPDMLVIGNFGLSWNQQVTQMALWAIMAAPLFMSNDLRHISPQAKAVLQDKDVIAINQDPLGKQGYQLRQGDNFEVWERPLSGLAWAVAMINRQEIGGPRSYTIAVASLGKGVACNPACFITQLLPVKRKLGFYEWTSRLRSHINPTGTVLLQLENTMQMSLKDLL
How it was run: (§1)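 Activity is reported as nmol of free 4-MU released per mg protein per hour (nmol/mg/hr).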

[2] = target: T2, α-Gal A mutant form A143V (Homo sapiens, UniProt P06280, A143V)
T2 construct: expressed in transfected cells; host or cells: HEK-293
T2 sequence (P06280 32-429 A143V): T1 sequence (P06280 32-429 L310V) with A112V, V279L
How it was run: as §1

[3] = target: T3, α-Gal A mutant form F159C (Homo sapiens, UniProt P06280, F159C)
T3 construct: expressed in transfected cells; host or cells: HEK-293
T3 sequence (P06280 32-429 F159C): T1 sequence (P06280 32-429 L310V) with F128C, V279L
How it was run: as §1

[4] = target: T4, α-Gal A mutant form A160D (Homo sapiens, UniProt P06280, A160D)
T4 construct: expressed in transfected cells; host or cells: HEK-293
T4 sequence (P06280 32-429 A160D): T1 sequence (P06280 32-429 L310V) with A129D, V279L
How it was run: as §1

[5] = target: T5, α-Gal A mutant form L180V (Homo sapiens, UniProt P06280, L180V)
T5 construct: expressed in transfected cells; host or cells: HEK-293
T5 sequence (P06280 32-429 L180V): T1 sequence (P06280 32-429 L310V) with L149V, V279L
How it was run: as §1

[6] = 10 μM migalastat minus baseline
[7] = HEK-293 lysates, 10 μM migalastat 5 days, mean ± SEM

OC[C@H]1NC[C@H](O)[C@@H](O)[C@H]1O [migalastat, (2R,3S,4R,5S)-2-(hydroxymethyl) piperdine-3,4,5-triol]
Absolute increase (% WT) [1, 6]: 22.8 % WT | Relative increase ([1]; 10 μM migalastat ÷ baseline): 1.37 | 10 μM migalastat α-Gal A activity [1, 7]: 31936 ± 2527 nmol/mg/h | 10 μM migalastat α-Gal A activity (% WT) [1, 7]: 78.4 ± 4.8 % WT | Absolute increase (% WT) [2, 6]: 31.7 % WT | Relative increase ([2]; 10 μM migalastat ÷ baseline): 3.24 | 10 μM migalastat α-Gal A activity [2, 7]: 13309 ± 921 nmol/mg/h | 10 μM migalastat α-Gal A activity (% WT) [2, 7]: 45.5 ± 3.2 % WT | Absolute increase (% WT) [3, 6]: 15.8 % WT | Relative increase ([3]; 10 μM migalastat ÷ baseline): 2.07 | 10 μM migalastat α-Gal A activity [3, 7]: 9238 ± 513 nmol/mg/h | 10 μM migalastat α-Gal A activity (% WT) [3, 7]: 29.6 ± 2.3 % WT | Absolute increase (% WT) [4, 6]: 25.9 % WT | Relative increase ([4]; 10 μM migalastat ÷ baseline): 1.83 | 10 μM migalastat α-Gal A activity [4, 7]: 18238 ± 1048 nmol/mg/h | 10 μM migalastat α-Gal A activity (% WT) [4, 7]: 56 ± 4.1 % WT | Absolute increase (% WT) [5, 6]: 36.2 % WT | Relative increase ([5]; 10 μM migalastat ÷ baseline): 1.97 | 10 μM migalastat α-Gal A activity [5, 7]: 25437 ± 1279 nmol/mg/h | 10 μM migalastat α-Gal A activity (% WT) [5, 7]: 73.4 ± 2.9 % WT
